How the values were obtained:
[1] = molecular target: Recombinant human c-Cbl (aa 47-435) (Homo sapiens (Human), UniProt P22681); assay: c-Cbl Biochemical Assay (TR-FRET)
In short: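 TR-FRET binding of UBE2D2-Ub-Bodipy (100 nM) to biotinylated c-Cbl (aa 47-435, 6 nM) via Streptavidin-Tb, measured after c-Cbl activation by Src-Zap70 with 0.5 mM ATP (60-90 min RT, 30 min compound preincubation). Ten-point half-log dilutions, 1% DMSO; IC50 by 4-parameter fit of normalized inhibition.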

[2] = molecular target: Recombinant human Cbl-b (aa 36-427) (Homo sapiens (Human), UniProt Q13191); assay: Cbl-b Biochemical Assay (TR-FRET); conditions: read-out: TR-FRET hCbl-b IC50
Recombinant human Cbl-b (aa 36-427), sequence (Q13191 36-427): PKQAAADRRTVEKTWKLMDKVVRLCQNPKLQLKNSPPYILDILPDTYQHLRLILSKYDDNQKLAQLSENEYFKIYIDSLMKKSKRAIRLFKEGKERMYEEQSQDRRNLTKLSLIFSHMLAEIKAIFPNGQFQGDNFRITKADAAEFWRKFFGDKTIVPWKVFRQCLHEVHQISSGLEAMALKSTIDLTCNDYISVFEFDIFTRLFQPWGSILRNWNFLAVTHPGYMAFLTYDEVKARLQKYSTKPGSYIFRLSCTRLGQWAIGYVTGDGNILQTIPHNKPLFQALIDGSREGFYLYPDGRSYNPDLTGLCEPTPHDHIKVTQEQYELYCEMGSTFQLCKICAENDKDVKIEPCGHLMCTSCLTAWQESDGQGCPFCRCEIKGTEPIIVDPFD
In short: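 IC50 from 4-parameter fit of % inhibition (DMSO max, reference-inhibitor min), duplicate ten-point series. Compound preincubated with 6 nM Cbl-b, then Src-Zap70 (1-2.5 nM)/0.5 mM ATP reaction 60 min RT; EDTA quench with labelled UBE2D2-Ub and streptavidin-terbium, 60 min, HTRF at 520 nm.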

Recombinant human c-Cbl (aa 47-435), sequence (P22681 47-435): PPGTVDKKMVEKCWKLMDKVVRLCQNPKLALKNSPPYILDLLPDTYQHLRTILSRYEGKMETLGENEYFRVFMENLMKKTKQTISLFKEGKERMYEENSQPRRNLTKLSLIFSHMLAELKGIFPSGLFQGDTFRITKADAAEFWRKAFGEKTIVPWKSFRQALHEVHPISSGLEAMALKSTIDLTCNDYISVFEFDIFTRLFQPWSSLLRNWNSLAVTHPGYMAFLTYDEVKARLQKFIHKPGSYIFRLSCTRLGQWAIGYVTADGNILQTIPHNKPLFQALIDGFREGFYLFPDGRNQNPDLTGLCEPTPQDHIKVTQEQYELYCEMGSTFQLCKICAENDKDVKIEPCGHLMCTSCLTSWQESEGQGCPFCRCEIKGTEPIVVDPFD

CN(Cc1ccc2c(c1)C(=O)N(c1cc(-c3ccc(Cl)cc3-c3nncn3C)cc(C3CC3)n1)C2)CC1(O)CCC1 [AMG-1, 2-(4-(4-Chloro-2-(4-methyl-4H-1,2,4-triazol-3-yl)phenyl)-6-cyclopropylpyridin-2-yl)-6-((((1-hydroxycyclobutyl)methyl)(methyl)amino)methyl)isoindolin-1-one]
IC50 [1]: ≤ 200 nM
IC50 [2]: ≤ 200 nM

CN(Cc1ccc2c(c1)C(=O)N(c1cc(-c3ccc(C#N)cc3-c3nncn3C)cc(C3CC3)n1)C2)CC(C)(C)O [AMH-1, 4-[2-Cyclopropyl-6-(6-{[(2-hydroxy-2-methylpropyl)(methyl)amino]methyl}-1-oxo-3H-isoindol-2-yl)pyridin-4-yl]-3-(4-methyl-1,2,4-triazol-3-yl)benzonitrile]
IC50 [1]: ≤ 200 nM
IC50 [2]: ≤ 200 nM

Cn1cnnc1-c1cc(F)ccc1-c1cc(C2CC2)nc(N2Cc3c(F)cc(CO)cc3C2=O)c1 [AMI-1, 2-{6-Cyclopropyl-4-[4-fluoro-2-(4-methyl-1,2,4-triazol-3-yl)phenyl]pyridin-2-yl}-4-fluoro-6-(hydroxymethyl)-3H-isoindol-1-one]
IC50 [1]: ≤ 200 nM
IC50 [2]: ≤ 200 nM

Cn1cnnc1-c1cc(F)ccc1-c1cc(C2CC2)nc(N2Cc3c(F)cc(CNCC4(O)CCC4)cc3C2=O)c1 [AMJ-1, 2-{6-Cyclopropyl-4-[4-fluoro-2-(4-methyl-1,2,4-triazol-3-yl)phenyl]pyridin-2-yl}-4-fluoro-6-({[(1-hydroxycyclobutyl)methyl]amino}methyl)-3H-isoindol-1-one]
IC50 [1]: ≤ 200 nM
IC50 [2]: ≤ 200 nM

CNCCNCc1cc2c(c(C(F)(F)F)c1)CN(c1cc(-c3ccc(C#N)cc3-c3nncn3C)cc(C3CC3)n1)C2=O [AMK-3, 4-{2-Cyclopropyl-6-[6-({[2-(methylamino)ethyl]amino}methyl)-1-oxo-4-(trifluoromethyl)-3H-isoindol-2-yl]pyridin-4-yl}-3-(4-methyl-1,2,4-triazol-3-yl)benzonitrile]
IC50 [1]: ≤ 200 nM
IC50 [2]: ≤ 200 nM

CN(Cc1cc(F)c2c(c1)C(=O)N(c1cc(-c3ccc(F)cc3-c3nncn3C)cc(C3CC3)n1)C2)CC1(O)CCC1 [AML-1, 2-{6-Cyclopropyl-4-[4-fluoro-2-(4-methyl-1,2,4-triazol-3-yl)phenyl]pyridin-2-yl}-4-fluoro-6-({[(1-hydroxycyclobutyl)methyl](methyl)amino}methyl)-3H-isoindol-1-one]
IC50 [1]: ≤ 200 nM
IC50 [2]: ≤ 200 nM

CN(Cc1ccc2c(c1)C(=O)N(c1cc(-c3ccc(F)cc3-c3nncn3C)cc(C3CC3)n1)C2)CC(C)(C)O [AMM-1, 2-{6-Cyclopropyl-4-[4-fluoro-2-(4-methyl-1,2,4-triazol-3-yl)phenyl]pyridin-2-yl}-6-{[(2-hydroxy-2-methylpropyl)(methyl)amino]methyl}-3H-isoindol-1-one]
IC50 [1]: ≤ 200 nM
IC50 [2]: ≤ 200 nM

Cn1cnnc1-c1cc(C#N)ccc1-c1cc(C2CC2)nc(N2Cc3ccc(CN4C[C@@H]5C[C@H]4CO5)cc3C2=O)c1 [AMN-1, 4-(2-Cyclopropyl-6-{6-[(1S,4S)-2-oxa-5-azabicyclo[2.2.1]heptan-5-ylmethyl]-1-oxo-3H-isoindol-2-yl}pyridin-4-yl)-3-(4-methyl-1,2,4-triazol-3-yl)benzonitrile]
IC50 [1]: ≤ 200 nM
IC50 [2]: ≤ 200 nM

Cn1cnnc1-c1cc(C#N)ccc1-c1cc(C2CC2)nc(N2Cc3ccc(CNC4CCOCC4)cc3C2=O)c1 [AMO-2, 4-(2-Cyclopropyl-6-{6-[(oxan-4-ylamino)methyl]-1-oxo-3H-isoindol-2-yl}pyridin-4-yl)-3-(4-methyl-1,2,4-triazol-3-yl)benzonitrile]
IC50 [1]: ≤ 200 nM
IC50 [2]: ≤ 200 nM

COCCNCc1cc2c(c(F)c1F)CN(c1cc(-c3ccc(C#N)cc3-c3nncn3C)cc(C3CC3)n1)C2=O [AMP-1, 4-[2-Cyclopropyl-6-(4,5-difluoro-6-{[(2-methoxyethyl)amino]methyl}-1-oxo-3H-isoindol-2-yl)pyridin-4-yl]-3-(4-methyl-1,2,4-triazol-3-yl)benzonitrile]
IC50 [1]: ≤ 200 nM
IC50 [2]: ≤ 200 nM

CN(Cc1cc(F)c2c(c1)C(=O)N(c1cc(-c3ccc(C#N)cc3-c3nncn3C)cc(C3CC3)n1)C2)C1CC1 [AMQ-2, 4-[2-Cyclopropyl-6-(6-{[cyclopropyl(methyl)amino]methyl}-4-fluoro-1-oxo-3H-isoindol-2-yl)pyridin-4-yl]-3-(4-methyl-1,2,4-triazol-3-yl)benzonitrile]
IC50 [1]: ≤ 200 nM
IC50 [2]: ≤ 200 nM

Cn1cnnc1-c1cc(C#N)ccc1-c1cc(C2CC2)nc(N2Cc3c(F)cc(CN4CCC[C@](C)(O)C4)cc3C2=O)c1 [AMR-2, 4-[2-Cyclopropyl-6-(4-fluoro-6-{[(3S)-3-hydroxy-3-methylpiperidin-1-yl]methyl}-1-oxo-3H-isoindol-2-yl)pyridin-4-yl]-3-(4-methyl-1,2,4-triazol-3-yl)benzonitrile]
IC50 [1]: ≤ 200 nM
IC50 [2]: ≤ 200 nM

Cn1cnnc1-c1cc(C#N)ccc1-c1cc(C2CC2)nc(N2Cc3c(F)cc(CN4CC5(COC5)C4)cc3C2=O)c1 [AMS-2, 4-[2-Cyclopropyl-6-(4-fluoro-6-{2-oxa-6-azaspiro [3.3]heptan-6-ylmethyl}-1-oxo-3H-isoindol-2-yl)pyridin-4-yl]-3-(4-methyl-1,2,4-triazol-3-yl)benzonitrile]
IC50 [1]: ≤ 200 nM
IC50 [2]: ≤ 200 nM

Cn1cnnc1-c1cc(C#N)ccc1-c1cc(C2CC2)nc(N2Cc3ccc(C(C)(C)NCC4COC4)cc3C2=O)c1 [AMT-2, 4-[2-Cyclopropyl-6-(6-{2-[(oxetan-3-ylmethyl)amino]propan-2-yl}-1-oxo-3H-isoindol-2-yl)pyridin-4-yl]-3-(4-methyl-1,2,4-triazol-3-yl) benzonitrile]
IC50 [1]: ≤ 200 nM
IC50 [2]: ≤ 200 nM

Cn1cnnc1-c1cc(C#N)ccc1-c1cc(C2CC2)nc(N2Cc3ccc(CNCC4(C)COC4)cc3C2=O)c1 [AMU-2, 4-{2-Cyclopropyl-6-[6-({[(3-methyloxetan-3-yl)methyl]amino}methyl)-1-oxo-3H-isoindol-2-yl]pyridin-4-yl}-3-(4-methyl-1,2,4-triazol-3-yl)benzonitrile]
IC50 [1]: ≤ 200 nM
IC50 [2]: ≤ 200 nM

Cn1cnnc1-c1cc(C#N)ccc1-c1cc(C2CC2)nc(N2Cc3ccc(CNC4COC4)cc3C2=O)c1 [AMV-2, 4-(2-Cyclopropyl-6-{6-[(oxetan-3-ylamino)methyl]-1-oxo-3H-isoindol-2-yl}pyridin-4-yl)-3-(4-methyl-1,2,4-triazol-3-yl)benzonitrile]
IC50 [1]: ≤ 200 nM
IC50 [2]: ≤ 200 nM

CN(Cc1cc(F)c2c(c1)C(=O)N(c1cc(-c3ccc(C#N)cc3-c3nncn3C)cc(C3CC3)n1)C2)CC1(O)CCC1 [AMW-2, 4-{2-Cyclopropyl-6-[4-fluoro-6-({[(1-hydroxycyclobutyl)methyl](methyl)amino}methyl)-1-oxo-3H-isoindol-2-yl]pyridin-4-yl}-3-(4-methyl-1,2,4-triazol-3-yl)benzonitrile]
IC50 [1]: ≤ 200 nM
IC50 [2]: ≤ 200 nM

Cn1cnnc1-c1cc(C#N)ccc1-c1cc(C2CC2)nc(N2Cc3c(F)cc(CN4CC[C@H]5C[C@H]54)cc3C2=O)c1 [AMX-3, 4-(2-{6-[(1R,5S)-2-Azabicyclo[3.1.0]hexan-2-ylmethyl]-4-fluoro-1-oxo-3H-isoindol-2-yl}-6-cyclopropylpyridin-4-yl)-3-(4-methyl-1,2,4-triazol-3-yl)benzonitrile]
IC50 [1]: ≤ 200 nM
IC50 [2]: ≤ 200 nM

Cn1cnnc1-c1cc(C#N)ccc1-c1cc(C2CC2)nc(N2Cc3c(F)cc(CN4CC[C@@H]5C[C@@H]54)cc3C2=O)c1 [AMY-1, 4-(2-{6-[(1S,5R)-2-Azabicyclo[3.1.0]hexan-2-ylmethyl]-4-fluoro-1-oxo-3H-isoindol-2-yl}-6-cyclopropylpyridin-4-yl)-3-(4-methyl-1,2,4-triazol-3-yl)benzonitrile]
IC50 [1]: ≤ 200 nM
IC50 [2]: ≤ 200 nM

COCCN(C)Cc1cc2c(c(F)c1F)CN(c1cc(-c3ccc(C#N)cc3-c3nncn3C)cc(C3CC3)n1)C2=O [AMZ-3, 4-[2-Cyclopropyl-6-(4,5-difluoro-6-{[(2-methoxyethyl)(methyl)amino]methyl}-1-oxo-3H-isoindol-2-yl)pyridin-4-yl]-3-(4-methyl-1,2,4-triazol-3-yl)benzonitrile]
IC50 [1]: ≤ 200 nM
IC50 [2]: ≤ 200 nM

Cn1cnnc1-c1cc(C#N)ccc1-c1cc(C2CC2)nc(N2Cc3ccc(CN4CC5CC5C4)cc3C2=O)c1 (stereo not drawn) [ANA-1, 4-[2-(6-{3-Azabicyclo[3.1.0]hexan-3-ylmethyl}-1-oxo-3H-isoindol-2-yl)-6-cyclopropylpyridin-4-yl]-3-(4-methyl-1,2,4-triazol-3-yl)benzonitrile]
IC50 [1]: ≤ 200 nM
IC50 [2]: ≤ 200 nM

Cn1cnnc1-c1cc(C#N)ccc1-c1cc(C2CC2)nc(N2Cc3c(F)cc(CNCC4COC4)cc3C2=O)c1 [ANB-1, 4-[2-Cyclopropyl-6-(4-fluoro-6-{[(oxetan-3-ylmethyl)amino]methyl}-1-oxo-3H-isoindol-2-yl)pyridin-4-yl]-3-(4-methyl-1,2,4-triazol-3-yl)benzonitrile]
IC50 [1]: ≤ 200 nM
IC50 [2]: ≤ 200 nM

C[C@@H]1[C@@H](O)CCN1Cc1cc(F)c2c(c1)C(=O)N(c1cc(-c3ccc(C#N)cc3-c3nncn3C)cc(C3CC3)n1)C2 [ANC-2, 4-[2-Cyclopropyl-6-(4-fluoro-6-{[(2R,3S)-3-hydroxy-2-methylpyrrolidin-1-yl]methyl}-1-oxo-3H-isoindol-2-yl)pyridin-4-yl]-3-(4-methyl-1,2,4-triazol-3-yl)benzonitrile]
IC50 [1]: ≤ 200 nM
IC50 [2]: ≤ 200 nM

Cn1cnnc1-c1cc(C#N)ccc1-c1cc(C2CC2)nc(N2Cc3ccc(CN4CCC5(CC5)C4)cc3C2=O)c1 [AND-1, 4-[2-(6-{5-Azaspiro[2.4]heptan-5-ylmethyl}-1-oxo-3H-isoindol-2-yl)-6-cyclopropylpyridin-4-yl]-3-(4-methyl-1,2,4-triazol-3-yl)benzonitrile]
IC50 [1]: ≤ 200 nM
IC50 [2]: ≤ 200 nM

Reference: patent publication US12325697B2 (Nimbus Clio, Inc., priority 2021, dated 2025)
